Measurements as given in patent publication EP3301100A1, “ORGANOMETALLIC FLUCONAZOLE DERIVATES AND THEIR USE AS ANTIMYCOTICS” (Universität Zürich, priority 2016, dated 2018).
pIC50: −log10 of the molar value. Converted amounts (≈) assume the structure as drawn.

Key:
[1] = tested on: human retinal pigment epithelial cell (RPE-1-hTert); experiment: cells
Experimental: In both topic and systemic applications, antimycotic drugs are getting in contact with patient tissues. It is therefore of utmost importance that new drug candidates display a lack of host toxicity. Thus, the antiproliferative effect of the new complexes were investigated in vitro on human retinal pigment epithelial cell (RPE-1-hTert). […] Table 1: Host cytotoxicity
Human fibroblast (MRC-5) and retinal pigment epithelial (RPE) cell lines were cultured in F-10 medium supplemented with 10% fetal calf serum (FCS, Gibco), 100 U/mL penicillin, 100 µg/mL streptomycin or DMEM medium (Gibco) supplemented with 10% fetal calf serum (FCS, Gibco), 100 U/mL penicillin, 100 µg/mL streptomycin, respectively, at 37 °C and 6% CO2.
Cytotoxicity studies of the compounds of the present invention were performed by a fluorometric cell viability assay using resazurin (Promocell GmbH). Briefly, one day before treatment the cells were plated in triplicate in 96-well plates at a density of 4 × 10^3 cells per well in 100 µL. Upon treating the cells with increasing concentrations of the compounds of the present invention, the cells were incubated for 48 h at 37 °C/6% CO2, the medium was removed, and 100 µL of complete medium containing resazurin (0.2 mg mL^-1 final concentration) was added. After 4 h of incubation at 37 °C/6% CO2, the fluorescence of the highly red fluorescent resorufin product was quantified at 590 nm emission with 540 nm excitation wavelength using a SpectraMax M5 Microplate Reader. The results were expressed as mean ± standard deviation error of independent experiments.

[2] = tested on: A. glaucus; experiment: Antifungal activity on pathological isolated strain (EUCAST susceptibility testing, MIC50); type: cell-based, Aspergillus glaucus; conditions: ≥ 50% inhibition of growth after 48 h incubation
Experimental: (§1) In vivo studies were performed on pathological isolated strains. […] The compounds of the present invention were tested against Candida albicans, its azole-resistant type and three different pathologic fungi, namely Penicillumpaneum, Aspergillus glaucus and Trichosporonasahi (see table 2). […] Table 2: In vivo antifungal activity
(§2) Candida strains were tested for their susceptibility to the azole (7 dilution series, ranging from 1 mM to 0.01 mM) following the European Committee for Antimicrobial Susceptibility Testing protocol (EUCAST Definitive Document EDef 7.2 Revision, 2012). Briefly, cells were grown in RPMI1640 medium supplied with 2.0% glucose, counted and inoculated at a concentration of 1-5 x 10^5 CFU/ml.

[3] = tested on: T. asahi; experiment: as above; type: cell-based, Trichosporonasahi; conditions: ≥ 50% inhibition of growth after 48 h incubation
Experimental: as §1, §2

[4] = tested on: C. albicans (res. Strains); experiment: as above; type: cell-based, Candida albicans; conditions: for MIC50: C. albicans (res. Strains), azole-resistant, ≥ 50% inhibition of growth after 48 h incubation
Experimental: as §1, §2

[5] = tested on: P. paneum; experiment: as above; type: cell-based, Penicillumpaneum; conditions: for MIC50: P. paneum, ≥ 50% inhibition of growth after 48 h incubation
Experimental: as §1, §2

[6] = tested on: Candida Robusta; conditions: wild type C. robusta, agar, 24 h at 30 °C; result in words, comparison with the parent drug
Experimental: To evaluate the antifungal acitivty of the new drug candidates, a well-plate based assay was used. The first investigation of antimycotic activity has been performed on a well-known model, namely Candida Robusta. Wild type colony of C. robusta was cultured and diluted to start the growing phase just before treatment and then seeded at different concentrations on the agar terrain poured with different concentrations of the target complexes and incubated for 24 h at 30 °C.
Wild type C. robusta was freshly inoculated and cultured in autoclaved YPD buffer containing 2% bacto peptone, 1% bacto yeast extract and 2% glucose anhydrous at 30°C (Kuehner shaker Labtherm, Kuehner Switzerland).
Briefly, one day before treatment, an aliquot of wild type C. robustawas inoculated in 5 mL YPD buffer solution (see above) and incubated overnight at 30°C. The fungal proliferation was then quantified at 600 nm in a Cary60 UV/Vis (Agilent Technologies). The SC was then seeded at different concentrations of the yeast (representing OD of 0.2, 0.02, 0.002 and 0.0002 for different colony growth rate) in 24-wells plates containing 2 mL growing terrain. […] The fungal colony formation was monitored with Alpha Digitec camera (Bucher Biotec) and the colony density was calculated with Alphalmager software (v1.3.0.7) with multiplex band analysis mode / single tool. […]

[7] = tested on: Candida albicans; experiment: Antifungal activity on pathological isolated strain (EUCAST susceptibility testing, MIC50); type: cell-based; conditions: C. albicans, ≥ 50% inhibition of growth after 48 h incubation
Experimental: as §1, §2

| SMILES | pIC50 ([1]; RPE-1-hTert cells, 48 h incubation, resazurin, mean ± standard deviation error) | MIC50 [2] [µM] | MIC50 [3] [µM] | MIC50 [4] [µM] | azole resistance ([4]; C. albicans resistant strain, result in words) | MIC50 [5] [µM] | antimycotic potency over the parent drug ([5]; e.g. P.paneum, factor versus fluconazole) [fold] | antifungal activity [6] | MIC50 [7] [µM] | MIC50 ([2]; Aspergillus glaucus) [µM] | MIC50 ([4]; Candida albicans) [µM] | cell viability [1] | pIC50 ([1]; Homo sapiens, Epithelial cell, 48 h) | MIC50 ([7]; Candida albicans) [µM] |
| --- | --- | --- | --- | --- | --- | --- | --- | --- | --- | --- | --- | --- | --- | --- |
| Cl.OC(CNC[c-]1cccc1)(Cn1cncn1)c1ccc(F)cc1F.[Fe+2].c1cc[cH-]c1 (stereo not drawn) [H, syn/anti-N-(ferrocenylmethyl)-2-(2,4-difluorophenyl)-2-hydroxy-3-(1H-1,2,4-triazol-1-yl)propan-1-aminium chloride] | < 4.00 |  |  |  |  |  |  |  |  |  |  |  |  |  |
| C[NH+](C[c-]1cccc1)CC(O)(Cn1cncn1)c1ccc(F)cc1F.[Cl-].[Fe+2].c1cc[cH-]c1 (stereo not drawn) [Methyl, syn/anti-N-(ferrocenylmethyl)-2-(2,4-difluorophenyl)-2-hydroxy-N-methyl-3-(1H-1,2,4-triazol-1-yl)propan-1-aminium chloride] |  | >1 | 0.13 | 0.7 | able to overcome azole resistance | 0.25 | ≤ 800 | highest antimycotic activity | 0.07 |  |  |  |  |  |
| OC(Cn1cncn1)(Cn1cncn1)c1ccc(F)cc1F [Fluconazole] |  |  | 1.6 (≈ 0.49 µg/mL) |  |  | >209 |  |  |  | 0.8 (≈ 0.245 µg/mL) | > 209 | did not affect cell viability | < 4.00 | 0.8 (≈ 0.245 µg/mL) |
